Assay results as given in the NIST ThermoML archive (doi:10.1021/je1007907).

Details: Liquid

CCCCn1cc[n+](C)c1.F[B-](F)(F)F [1-butyl-3-methylimidazolium tetrafluoroborate]
Details	mass density [kg/m3]
239.75 K, 1875.4 kPa	1243.62
244.15 K, 9187.2 kPa	1243.32
244.15 K, 30106 kPa	1251.69
250.8 K, 41033 kPa	1251.23
251.15 K, 20631 kPa	1242.83
251.62 K, 1431.5 kPa	1234.33
256.79 K, 51047 kPa	1250.8
257.25 K, 10286 kPa	1233.95
257.26 K, 30540 kPa	1242.41
262.28 K, 59764 kPa	1250.41
263.49 K, 40569 kPa	1241.97
263.7 K, 20360 kPa	1233.5
264.47 K, 1197.4 kPa	1225.08
269.79 K, 50298 kPa	1241.52
270.25 K, 9963.8 kPa	1224.68
270.25 K, 30434 kPa	1233.04
275.57 K, 59083 kPa	1241.11
276.95 K, 19845 kPa	1224.21
276.97 K, 40555 kPa	1232.57
278.13 K, 1660 kPa	1215.35
283.48 K, 50231 kPa	1232.1
284.06 K, 30274 kPa	1223.71
284.1 K, 10163 kPa	1214.93
290.09 K, 59872 kPa	1231.63
291.27 K, 40686 kPa	1223.19
291.46 K, 20613 kPa	1214.42
292.09 K, 1445.8 kPa	1204.99
292.09 K, 1940.4 kPa	1204.98
298.12 K, 105.9 kPa	1201.65
298.12 K, 9550.8 kPa	1204.57
298.13 K, 10109 kPa	1204.56
298.14 K, 10428 kPa	1204.76
298.14 K, 29887 kPa	1213.94
298.58 K, 50942 kPa	1222.67
305.03 K, 19306 kPa	1204.07
305.53 K, 898.6 kPa	1194.9
305.54 K, 60508 kPa	1222.17
305.67 K, 40148 kPa	1213.41
313.03 K, 9790.3 kPa	1194.22
313.04 K, 29821 kPa	1203.5
313.04 K, 30149 kPa	1203.7
313.05 K, 10270 kPa	1194.38
313.06 K, 29280 kPa	1203.51
313.61 K, 50546 kPa	1212.83
320.1 K, 328.6 kPa	1184.62
320.51 K, 19693 kPa	1193.85
321.4 K, 60815 kPa	1212.26
321.61 K, 40890 kPa	1202.88
327.98 K, 48935 kPa	1202.42
328.18 K, 10050 kPa	1184.05
328.18 K, 28863 kPa	1193.3
328.18 K, 29052 kPa	1193.14
328.18 K, 29263 kPa	1193.3
328.22 K, 10050 kPa	1184.05
336.35 K, 39210 kPa	1192.7
336.68 K, 20276 kPa	1183.44
337.09 K, 59633 kPa	1201.76
344.2 K, 29113 kPa	1182.9
344.31 K, 48811 kPa	1192.12
353.68 K, 59697 kPa	1191.42
354.16 K, 40617 kPa	1182.17
